Laboratory results reported in US20250326748A1, “COMPOUNDS AND METHODS FOR MODULATING SPLICING” (REMIX THERAPEUTICS INC., priority 2022, published 2025).
Where a name gives a salt, the structure may show the parent alone.

System: Target C
Experiment: HiBiT protein abundance assay, Target C (K562 HiBiT knock-in)
Format: cell-based, human
Conditions: HiBiT knock-in cells, 24 hours
Protocol: Cells were maintained in IMDM with 10% FBS. Before the assay, cells were diluted with […] growth media (IMDM+1% FBS media) and were seeded in a 384-well plate at a density of 10000 cells/well (for each cell line listed in Table 6). Each compound was prepared as a 10-point 3-old serial dilution in DMSO with the top dose at a final concentration of 10 μM in the well. Unmodified K562 cells were added at the previously specified density with DMSO to serve as an assay baseline and positive control (PC) and DMSO only with the respective modified cell lines was added to the negative control (NC) columns. Final DMSO concentration was kept at or below 0.25%. Treated cell plates were placed in an incubator at 37° C. with 5% CO2 for 24 hours. After 24 hours, 25 μL of Complete HiBit Lytic reagent was added to each well at room temperature (e.g. one plate requiring 10 ml Lytic Buffer, 100 μL LgBiT Protein, 200 μL Lytic Substrate), shaken for 5 minutes at 600 RPM, then left to sit for 10 minutes for signal to stabilize before reading on a Spark Cyto plate reader (Tecan) with a 500 ms measurement time.
To determine compound effects on protein abundance of each target in Table 6, the percent response for each respective cell line was calculated at each compound concentration as follows:
For the normalized response at each concentration, a four-parameter logistical regression was fit to the data and the response was interpolated at the 50% value to determine a concentration for protein abundance at 50% (IC50) the untreated control.

| IC50 [µM] | Compound |
| --- | --- |
| 1 to 10 | C[C@@H]1CN(c2cnc3nc(-c4cc5cn(C)nc5c(F)c4O)cc(C4CC4)c3c2)C[C@H](C)N1 [Compound 305, 5-{4-cyclopropyl-6-[(3R,5S)-3,5-dimethylpiperazin-1-yl]-1,8-naphthyridin-2-yl}-7-fluoro-2-methylindazol-6-ol] |
| 1 to 10 | Cc1c(O)c(-c2ccc3cc(N4CCC(N(C)C)CC4)cnc3n2)cc2cn(C)nc12 [Compound 138, 5-{6-[4-(dimethylamino)piperidin-1-yl]-1,8-naphthyridin-2-yl}-2,7-dimethylindazol-6-ol] |
| 0.1 to 1 | Cn1cc2cc(-c3cc(Cl)c4cc(N5CCNC6(CC6)C5)cnc4n3)c(O)c(F)c2n1 [Compound 274] |
| 0.1 to 1 | Cn1cc2cc(-c3ccc4cc(N5CC[C@H](NCC6CC6)C5)cnc4n3)c(O)cc2n1 [Compound 314] |
| 0.1 to 1 | C[C@@H]1CN(c2cnc3nc(-c4cc5cn(C)nc5c(F)c4O)cc(Cl)c3c2)C[C@@H](C)N1 [Compound 281] |
| 0.1 to 1 | Cc1cc(-c2cc3cn(C)nc3c(C)c2O)nc2ncc(N3CCNCC3)cc12 [Compound 151, 2,7-dimethyl-5-[4-methyl-6-(piperazin-1-yl)-1,8-naphthyridin-2-yl]indazol-6-ol] |
| 1 to 10 | Cc1c(O)c(-c2ccc3c(Cl)c(N4CCNCC4)cnc3n2)cc2cn(C)nc12 [Compound 278, 5-[5-chloro-6-(piperazin-1-yl)-1,8-naphthyridin-2-yl]-2,7-dimethylindazol-6-ol] |
| > 10 | CNC(=O)c1cc(-c2cc3cn(C)nc3c(C)c2O)nc2ncc(N3CCNCC3)cc12 [Compound 150, 2-(6-hydroxy-2,7-dimethylindazol-5-yl)-N-methyl-6-(piperazin-1-yl)-1,8-naphthyridine-4-carboxamide] |
| 0.1 to 1 | CN[C@H]1CN(c2cnc3nc(-c4cc5cn(C)nc5c(C)c4O)ccc3c2)C[C@@H]1C [Compound 127, 2,7-dimethyl-5-{6-[(3S,4R)-3-methyl-4-(methylamino)384pyrrolidine-1-yl]-1,8-naphthyridin-2-yl}indazol-6-ol] |
| 0.1 to 1 | Cc1c(O)c(-c2cc(Cl)c3cc(N4CCC(N(C)C)C4)cnc3n2)cc2cn(C)nc12 (stereo not drawn) [Compound 143, 5-{4-chloro-6-[3-(dimethylamino)357pyrrolidine-1-yl]-1,8-naphthyridin-2-yl}-2,7-dimethylindazol-6-ol] |
| 1 to 10 | Cc1c(O)c(-c2cc(Cl)c3cc(N4CCNC(C)C4)cnc3n2)cc2cn(C)nc12 (stereo not drawn) [Compound 147] |
| 0.1 to 1 | Cc1cn2nc(-c3ccc4cc(N5C[C@@H](C)N[C@@H](C)C5)cnc4n3)cc(C)c2n1 [Compound 330] |
| 1 to 10 | Cc1cn2cc(-c3cc(Cl)c4cc(N5C[C@H](C)N[C@@H](C)C5)cnc4n3)cc(F)c2n1 [Compound 298] |
| < 0.1 | CN[C@@H]1CCN(c2cnc3nc(-c4cc5cn(C)nc5c(C)c4O)ncc3c2)C1 [Compound 107, 2,7-dimethyl-5-{6-[(3R)-3-(methylamino)pyrrolidin-1-yl]pyrido[2,3-d]pyrimidin-2-yl}indazol-6-ol hydrochloride] |
| < 0.1 | C[C@H]1CN(c2cnc3nc(-c4cc5cn(C)nc5c(F)c4O)cc(Cl)c3c2)C[C@H](C)N1 [Compound 280] |
| 0.1 to 1 | CN[C@H]1CN(c2cnc3nc(-c4cc5cn(C)nc5c(C)c4O)ccc3c2)C[C@H]1F [Compound 129, 5-{6-[(3R,4S)-3-fluoro-4-(methylamino)pyrrolidin-1-yl]-1,8-naphthyridin-2-yl}-2,7-dimethylindazol-6-ol] |
| 1 to 10 | Cc1c(O)c(-c2cc(Cl)c3cc(N(C)[C@@H]4CCNC4)cnc3n2)cc2cn(C)nc12.Cl [Compound 293] |

| IC50 [µM] | Compound |
| --- | --- |
| < 0.1 | Cc1c(O)c(-c2ccc3cc(N4CC[C@@H](NCC5CC5)C4)cnc3n2)cc2cn(C)nc12 [Compound 118] |
| 0.1 to 1 | CCN[C@H]1CCN(c2cnc3nc(-c4cc5cn(C)nc5c(C)c4O)ccc3c2)C1 [Compound 123] |
| 1 to 10 | CN1CCC[C@@H]2CN(c3cnc4nc(-c5cc6cn(C)nc6c(F)c5O)cc(Cl)c4c3)C[C@@H]21 [Compound 303] |
| > 10 | C[C@@H]1CN(c2cnc3nc(-c4ccc5nn(C)cc5c4)cc(Cl)c3c2)C[C@H](C)N1 [Compound 320, 4-chloro-6-[(3R,5S)-3,5-dimethylpiperazin-1-yl]-2-(2-methylindazol-5-yl)-1,8-naphthyridine] |
| 1 to 10 | Cn1cc2cc(-c3ccc4cc(NC5CCNCC5)cnc4n3)c(O)c(F)c2n1 [Compound 285] |
| 0.1 to 1 | CN[C@@H]1CN(c2cnc3nc(-c4cc5cn(C)nc5c(C)c4O)ccc3c2)C[C@@H]1C [Compound 128] |
| 0.1 to 1 | Cn1cc2cc(-c3ccc4cc(N5CC[C@H](NCC6CC6)C5)cnc4n3)c(O)c(F)c2n1 [Compound 136, 5-{6-[(3S)-3-[(cyclopropylmethyl)amino]326pyrrolidine-1-yl]-1,8-naphthyridin-2-yl}-7-fluoro-2-methylindazol-6-ol] |
| 0.1 to 1 | CN[C@@H]1CN(c2cnc3nc(-c4cc5cn(C)nc5c(C)c4O)ccc3c2)C[C@@H]1F [Compound 132, 5-{6-[(3S,4R)-3-fluoro-4-(methylamino)pyrrolidin-1-yl]-1,8-naphthyridin-2-yl}-2,7-dimethylindazol-6-ol] |
| < 0.1 | CN[C@H]1CCN(c2cnc3nc(-c4cc5cn(C)nc5c(F)c4O)cc(Cl)c3c2)C1 [Compound 272] |
| 0.1 to 1 | Cn1cc2cc(-c3ccc4cc(N5CCC(NC(C)(C)C)C5)cnc4n3)c(O)cc2n1 (stereo not drawn) [Compound 134, 5-{6-[3-(tert-butylamino)pyrrolidin-1-yl]-1,8-naphthyridin-2-yl}-2-methylindazol-6-ol hydrochloride] |
| 0.1 to 1 | CN[C@@H]1CCN(c2cnc3nc(-c4cc(C)c5nc(C)cn5n4)ccc3c2)C1 [Compound 117] |
| 0.1 to 1 | C[C@@H]1CN(c2cnc3nc(-c4cc(F)c5nn(C)cc5c4)cc(Cl)c3c2)CCN1 [Compound 295, 4-chloro-2-(7-fluoro-2-methylindazol-5-yl)-6-[(3R)-3-methylpiperazin-1-yl]-1,8-naphthyridine] |
| < 0.1 | CN[C@@H]1CCN(c2cnc3nc(-c4cc5cn(C)nc5c(C)c4O)cc(Cl)c3c2)C1 [Compound 286, 5-{4-chloro-6-[(3R)-3-(methylamino)pyrrolidin-1-yl]-1,8-naphthyridin-2-yl}-2,7-dimethylindazol-6-ol hydrochloride] |
| 0.1 to 1 | CNC1CCN(c2cnc3nc(-c4cc5cn(C)nc5c(C)c4O)ncc3c2)C1 (stereo not drawn) [Compound 104, 2,7-dimethyl-5-{6-[3-(methylamino)pyrrolidin-1-yl]pyrido[2,3-d]pyrimidin-2-yl}indazol-6-ol] |
| 0.1 to 1 | CN[C@@H]1CN(c2cnc3nc(-c4cc5cn(C)nc5c(C)c4O)ccc3c2)C[C@H]1F (single isomer, unassigned) [Compound 130] |
| < 0.1 | CN[C@@H]1CCN(c2cnc3nc(-c4cc(C)c5nc(C)cn5n4)cc(Cl)c3c2)C1 [Compound 341] |
